Laboratory results: patent US20100093662A1, “NOVEL AMPHIPHILIC CYCLODEXTRIN DERIVATIVES” (CENTRE NATIONAL DE LA RECHERCHE SCIENTIFIQUE-CNRS-, priority 2006, published 2010)

Assay: Size and polydispersion of white homogenous nanospheres (quasi-elastic diffusion of light), physical stability over time
Format: physicochemical
Description: The method used to prepare white homogenous nanospheres consists in introducing an organic phase of acetone (or tetrahydrofurane) and an amphiphilic cyclodextrin derivative from the invention (1 mg·mL^−1) in an aqueous phase of equivalent volume or a double volume (distilled water), under magnetic stirring (500 r.p.m.) at 25° C. After nanoprecipitation, the organic solvent is eliminated under reduced pressure at +35° C. The aqueous suspension presenting an opalescent to milky appearance (according to the products used) is then concentrated until the final volume desired is obtained, then filtered on a 0.8 μm filter (Millex AA, Millipore, France).
The colloid suspensions are then characterised as regards the granulometry (mean size and polydisperion) and, when they incorporate loaded amphiphilic cyclodextrins, by their zeta potential. The characterisation is carried out using the following methods:
The quasi-elastic diffusion of light is used. A Zetasizer 3000 apparatus equipped with a K7132 correlator (Malvern Instruments, RU) was used. The conditions for measurement are as follows: angle of detection 90°, temperature 25±0.1° C., apparent viscosity 0.89 mPa·s. Before measuring the size, samples are diluted in distilled water if necessary. The hydrodynamic diameter (mean Z) and polydispersion index (PI) of the nanoparticles in suspension are calculated in intensity by the cumulant method by carrying out 3 measurements on the same sample. The value of the hydrodynamic diameter is calculated using the measurement of the translational coefficient of diffusion of particles with Brownian movement. An NanoZS apparatus (Malvern Instruments) was also used to measure the size of the nanocapsules. In the same way, the samples are diluted before measurement, if necessary in water added to Montanox 80 (trade mark).
The studies on the physical stability of particles were carried out over periods ranging from 1 month to 8 months. The corresponding data for a series of amphiphilic cyclodextrins in the invention are indicated in Table 1 providing the granulometric characteristics (mean size and polydispersion index or mean PI), with evolution over time, of different homogenous nanospheres derived from the compounds indicated in the left column, the reference number for said compounds corresponding to those of the compounds described in the above examples.

Row | Compound | Mean size ± standard deviation (n = 3) (initial) [nm] | PI (polydispersion index) (initial) | IP (polydispersion index) (3 months) | Mean size ± standard deviation (n = 3) (3 months) [nm] | Mean size ± standard deviation (n = 3) (8 months) [nm] | PI (polydispersion index) (8 months) | IP (polydispersion index) (6 months) | Mean size ± standard deviation (n = 3) (6 months) [nm]
1 | heptakis[6-desoxy-2,3-di-0-myristoyl-6-(2-isothiocyanatoethylthio)]cyclomaltoheptaose [compound no. 12] | 72 ± 32 | 0.31 | – | – | – | – | – | –
2 | heptakis[6-(2-tert-butoxycarbonylaminoethylthio)-6-desoxy-2,3-di-O-myristoyl]cyclomaltoheptaose [compound no. 10] | 212 ± 14 | 0.11 | 0.07 | 207 ± 1 | – | – | 0.32 | 269 ± 64
3 | CCCCCC(=O)O[C@@H]1[C@@H](OC(=O)CCCCC)[C@H]2O[C@H]3[C@H](OC(=O)CCCCC)[C@@H](OC(=O)CCCCC)[C@@H](O[C@H]4[C@H](OC(=O)CCCCC)[C@@H](OC(=O)CCCCC)[C@@H](O[C@H]5[C@H](OC(=O)CCCCC)[C@@H](OC(=O)CCCCC)[C@@H](O[C@H]6[C@H](OC(=O)CCCCC)[C@@H](OC(=O)CCCCC)[C@@H](O[C@H]7[C@H](OC(=O)CCCCC)[C@@H](OC(=O)CCCCC)[C@@H](O[C@H]8[C@H](OC(=O)CCCCC)[C@@H](OC(=O)CCCCC)[C@@H](O[C@@H]1[C@@H](CN=[N+]=[N-])O2)O[C@@H]8CN=[N+]=[N-])O[C@@H]7CN=[N+]=[N-])O[C@@H]6CN=[N+]=[N-])O[C@@H]5CN=[N+]=[N-])O[C@@H]4CN=[N+]=[N-])O[C@@H]3CN=[N+]=[N-] [compound no. 3, heptakis(6-azido-6-desoxy-2,3-di-O-hexanoyl)cyclomaltoheptaose] | 181 ± 5 | 0.08 | 0.06 | 157 ± 8 | – | – | 0.18 | 206 ± 17
4 | CCCCCC(=O)O[C@@H]1[C@@H](OC(=O)CCCCC)[C@H]2O[C@H]3[C@H](OC(=O)CCCCC)[C@@H](OC(=O)CCCCC)[C@@H](O[C@H]4[C@H](OC(=O)CCCCC)[C@@H](OC(=O)CCCCC)[C@@H](O[C@H]5[C@H](OC(=O)CCCCC)[C@@H](OC(=O)CCCCC)[C@@H](O[C@H]6[C@H](OC(=O)CCCCC)[C@@H](OC(=O)CCCCC)[C@@H](O[C@H]7[C@H](OC(=O)CCCCC)[C@@H](OC(=O)CCCCC)[C@@H](O[C@H]8[C@H](OC(=O)CCCCC)[C@@H](OC(=O)CCCCC)[C@@H](O[C@@H]1[C@@H](CSCCNC(=O)OC(C)(C)C)O2)O[C@@H]8CSCCNC(=O)OC(C)(C)C)O[C@@H]7CSCCNC(=O)OC(C)(C)C)O[C@@H]6CSCCNC(=O)OC(C)(C)C)O[C@@H]5CSCCNC(=O)OC(C)(C)C)O[C@@H]4CSCCNC(=O)OC(C)(C)C)O[C@@H]3CSCCNC(=O)OC(C)(C)C [compound no. 7, heptakis[6-(2-tert-butoxycarbonylaminoethylthio)-6-desoxy-2,3-di-0-hexanoyl]cyclomaltoheptaose] | 283 ± 29 | 0.06 | – | – | 194 ± 2 | 0.02 | – | –

Now from value to compound, other results behind:

Row | Mean size ± standard deviation (n = 3) (initial) [nm] | PI (polydispersion index) (initial) | IP (polydispersion index) (3 months) | Mean size ± standard deviation (n = 3) (3 months) [nm] | Compound | Mean size ± standard deviation (n = 3) (8 months) [nm] | PI (polydispersion index) (8 months) | IP (polydispersion index) (6 months) | Mean size ± standard deviation (n = 3) (6 months) [nm]
5 | 238 ± 29 | 0.02 | – | – | CCCCCC(=O)O[C@@H]1[C@@H](OC(=O)CCCCC)[C@H]2O[C@H]3[C@H](OC(=O)CCCCC)[C@@H](OC(=O)CCCCC)[C@@H](O[C@H]4[C@H](OC(=O)CCCCC)[C@@H](OC(=O)CCCCC)[C@@H](O[C@H]5[C@H](OC(=O)CCCCC)[C@@H](OC(=O)CCCCC)[C@@H](O[C@H]6[C@H](OC(=O)CCCCC)[C@@H](OC(=O)CCCCC)[C@@H](O[C@H]7[C@H](OC(=O)CCCCC)[C@@H](OC(=O)CCCCC)[C@@H](O[C@H]8[C@H](OC(=O)CCCCC)[C@@H](OC(=O)CCCCC)[C@@H](O[C@@H]1[C@@H](CBr)O2)O[C@@H]8CBr)O[C@@H]7CBr)O[C@@H]6CBr)O[C@@H]5CBr)O[C@@H]4CBr)O[C@@H]3CBr [compound no. 2, heptakis(6-bromo-6-desoxy-2,3-di-O-hexanoyl)cyclomaltoheptaose] | 182 ± 22 | 0.01 | – | –
6 | 123 ± 2 | 0.03 | 0.09 | 138 ± 2 | CCCCCC(=O)O[C@@H]1[C@@H](OC(=O)CCCCC)[C@H]2O[C@H]3[C@H](OC(=O)CCCCC)[C@@H](OC(=O)CCCCC)[C@@H](O[C@H]4[C@H](OC(=O)CCCCC)[C@@H](OC(=O)CCCCC)[C@@H](O[C@H]5[C@H](OC(=O)CCCCC)[C@@H](OC(=O)CCCCC)[C@@H](O[C@H]6[C@H](OC(=O)CCCCC)[C@@H](OC(=O)CCCCC)[C@@H](O[C@H]7[C@H](OC(=O)CCCCC)[C@@H](OC(=O)CCCCC)[C@@H](O[C@H]8[C@H](OC(=O)CCCCC)[C@@H](OC(=O)CCCCC)[C@@H](O[C@@H]1[C@@H](CSCCN=C=S)O2)O[C@@H]8CSCCN=C=S)O[C@@H]7CSCCN=C=S)O[C@@H]6CSCCN=C=S)O[C@@H]5CSCCN=C=S)O[C@@H]4CSCCN=C=S)O[C@@H]3CSCCN=C=S [compound no. 9, heptakis[6-desoxy-2,3-di-0-hexanoyl-6-(2-isothiocyanatoethylthio)]cyclomaltoheptaose] | – | – | – | –
7 | 171 ± 9 | 0.03 | 0.06 | 157 ± 8 | heptakis(6-azido-6-desoxy-2,3-di-0-myristoyl)cyclomaltoheptaose [compound no. 6] | – | – | 0.04 | 198 ± 12
8 | 115 ± 31 | 0.16 | – | – | CCCCCC(=O)OC1C2OC(CSCCNC(=S)NC)C(OC3OC(CSCCNC(=S)NC)C(OC4OC(CSCCNC(=S)NC)C(OC5OC(CSCCNC(=S)NC)C(OC6OC(CSCCNC(=S)NC)C(OC7OC(CSCCNC(=S)NC)C(OC8OC(CSCCNC(=S)NC)C(O2)C(OC(=O)CCCCC)C8OC(=O)CCCCC)C(OC(=O)CCCCC)C7OC(=O)CCCCC)C(OC(=O)CCCCC)C6OC(=O)CCCCC)C(OC(=O)CCCCC)C5OC(=O)CCCCC)C(OC(=O)CCCCC)C4OC(=O)CCCCC)C(OC(=O)CCCCC)C3OC(=O)CCCCC)C1OC(=O)CCCCC (stereo not drawn) [compound no. 13, heptakis[6-desoxy-2,3-di-0-hexanoyl-6-(2-(N′-methylthioureido)ethylthio)]cyclomaltoheptaose] | – | – | – | –
9 | 244 ± 13 | 0.13 | 0.05 | 232 ± 22 | CCCCCCCCCCCCCC(=O)O[C@@H]1[C@@H](OC(=O)CCCCCCCCCCCCC)[C@H]2O[C@H]3[C@H](OC(=O)CCCCCCCCCCCCC)[C@@H](OC(=O)CCCCCCCCCCCCC)[C@@H](O[C@H]4[C@H](OC(=O)CCCCCCCCCCCCC)[C@@H](OC(=O)CCCCCCCCCCCCC)[C@@H](O[C@H]5[C@H](OC(=O)CCCCCCCCCCCCC)[C@@H](OC(=O)CCCCCCCCCCCCC)[C@@H](O[C@H]6[C@H](OC(=O)CCCCCCCCCCCCC)[C@@H](OC(=O)CCCCCCCCCCCCC)[C@@H](O[C@H]7[C@H](OC(=O)CCCCCCCCCCCCC)[C@@H](OC(=O)CCCCCCCCCCCCC)[C@@H](O[C@H]8[C@H](OC(=O)CCCCCCCCCCCCC)[C@@H](OC(=O)CCCCCCCCCCCCC)[C@@H](O[C@@H]1[C@@H](CBr)O2)O[C@@H]8CBr)O[C@@H]7CBr)O[C@@H]6CBr)O[C@@H]5CBr)O[C@@H]4CBr)O[C@@H]3CBr [compound no. 5, heptakis(6-bromo-6-desoxy-2,3-di-O-myristoyl)cyclomaltoheptaose] | – | – | 0.03 | 242 ± 27
10 | 100 ± 20 | 0.06 | – | – | CCCCCC(=O)OC1C2OC(CO)C(OC3OC(CO)C(OC4OC(CO)C(OC5OC(CO)C(OC6OC(CSCCNC(=S)NCCSCC7OC8OC9C(CO)OC(OC%10C(CO)OC(OC%11C(CO)OC(OC%12C(CO)OC(OC%13C(CO)OC(OC%14C(CO)OC(OC7C(O)C8O)C(O)C%14O)C(O)C%13O)C(O)C%12O)C(O)C%11O)C(O)C%10O)C(O)C9O)C(OC7OC(CO)C(OC8OC(CO)C(O2)C(OC(=O)CCCCC)C8OC(=O)CCCCC)C(OC(=O)CCCCC)C7OC(=O)CCCCC)C(OC(=O)CCCCC)C6OC(=O)CCCCC)C(OC(=O)CCCCC)C5OC(=O)CCCCC)C(OC(=O)CCCCC)C4OC(=O)CCCCC)C(OC(=O)CCCCC)C3OC(=O)CCCCC)C1OC(=O)CCCCC (stereo not drawn) [compound no. 26] | – | – | – | –
